Results on 30 compounds are retold here after ChEMBL document CHEMBL1153688, “Design, synthesis, and pharmacological evaluation of dual histamine H2 and gastrin receptor antagonists” (Bioorg Med Chem Lett, 1996).

Structures are written as SMILES. Bounds are passed on as bounds.

The target in one assay is Histamine H2 receptor (Rattus norvegicus, UniProt P25102). The assay can be described thus: Antagonistic activity for inhibition of histamine H2 receptor from anesthetized rats. In kind it is functional. Particulars: read-out: pA2 (converted).
The target of assay [1] is T1, Cholecystokinin receptor type A (Mus musculus, UniProt O08786).
T1 sequence (O08786 whole entry): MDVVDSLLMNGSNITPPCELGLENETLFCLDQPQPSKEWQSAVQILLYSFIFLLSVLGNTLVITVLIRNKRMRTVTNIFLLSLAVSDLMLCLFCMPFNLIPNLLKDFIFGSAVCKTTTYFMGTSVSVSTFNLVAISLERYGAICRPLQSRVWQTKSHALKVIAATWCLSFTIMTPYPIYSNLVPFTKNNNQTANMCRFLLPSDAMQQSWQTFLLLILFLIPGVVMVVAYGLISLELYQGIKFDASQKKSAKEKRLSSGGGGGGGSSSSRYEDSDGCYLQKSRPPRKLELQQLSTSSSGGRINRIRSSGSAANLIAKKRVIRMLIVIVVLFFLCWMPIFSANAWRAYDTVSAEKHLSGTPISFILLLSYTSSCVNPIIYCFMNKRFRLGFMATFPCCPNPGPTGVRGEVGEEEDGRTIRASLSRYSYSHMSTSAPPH
Nature of the assay: Inhibitory activity against Cholecystokinin type A receptor.

Assay [2] concerns the target T2, Gastrin/cholecystokinin type B receptor (Mus musculus, UniProt P56481).
T2 sequence (P56481 whole entry): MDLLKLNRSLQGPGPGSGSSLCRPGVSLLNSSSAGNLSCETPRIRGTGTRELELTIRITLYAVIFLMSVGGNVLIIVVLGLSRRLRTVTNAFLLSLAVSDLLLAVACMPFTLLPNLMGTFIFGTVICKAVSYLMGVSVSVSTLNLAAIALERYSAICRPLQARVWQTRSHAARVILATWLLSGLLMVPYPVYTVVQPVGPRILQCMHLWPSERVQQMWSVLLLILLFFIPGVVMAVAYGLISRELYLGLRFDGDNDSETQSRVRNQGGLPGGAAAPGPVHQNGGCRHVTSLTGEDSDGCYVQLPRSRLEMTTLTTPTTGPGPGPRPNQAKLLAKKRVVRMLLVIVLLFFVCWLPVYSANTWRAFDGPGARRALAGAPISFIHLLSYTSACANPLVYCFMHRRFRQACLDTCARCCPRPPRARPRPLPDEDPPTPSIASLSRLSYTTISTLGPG
Nature of the assay: Inhibitory activity against Cholecystokinin type B receptor.

Assay [3] has as its target Cholecystokinin receptor (Mus musculus) (UniProt O08786+P56481). Nature of the assay: Ratio of IC50(gastrin) to IC50(CCK-A). The class given is protein assay.

Histamine H2 receptor, sequence (P25102 whole entry): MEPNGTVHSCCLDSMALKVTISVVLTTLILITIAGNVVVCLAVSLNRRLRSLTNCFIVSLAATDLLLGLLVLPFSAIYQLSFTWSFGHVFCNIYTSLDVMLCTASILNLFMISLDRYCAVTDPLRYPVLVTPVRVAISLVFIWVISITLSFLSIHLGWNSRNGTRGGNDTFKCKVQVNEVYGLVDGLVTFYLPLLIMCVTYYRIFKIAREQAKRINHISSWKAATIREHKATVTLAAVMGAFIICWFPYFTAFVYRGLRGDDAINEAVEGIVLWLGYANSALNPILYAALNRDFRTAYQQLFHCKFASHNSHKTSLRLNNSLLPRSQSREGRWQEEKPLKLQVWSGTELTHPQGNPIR

`CN/C(=N/CCSCc1nc[nH]c1C)NC#N` [CIMETIDINE]: the Kb at Histamine H2 receptor was 251 nM.

`Cc1cccc(NC(=O)NC2N=C(c3ccccc3)c3ccccc3N(CC(=O)NCCCOc3cccc(CN4CCCCC4)c3)C2=O)c1` (centres undefined): the results for the IC50 in assay [1] and in assay [2] were 5700 nM and 540 nM, respectively. The Kb at Histamine H2 receptor is above 10000 nM. In addition, the Ratio in assay [3] is 36.8.

For the compound `CN1C(=O)[C@H](NC(=O)Nc2cccc(CC(=O)NCCC(=O)NCCCOc3cccc(CN4CCCCC4)c3)c2)N=C(c2ccccc2)c2ccccc21`, the IC50 was determined as 190 nM in assay [1] and 290 nM in assay [2]. Besides, on Histamine H2 receptor, the Kb is 251 nM. Also, the Ratio in assay [3] turned out to be 1.4.

For `CN1C(=O)[C@H](NC(=O)Nc2cccc(C(=O)NCCSCc3csc(N=C(N)N)n3)c2)N=C(c2ccccc2)c2ccccc21`, the half-inhibitory concentration (IC50) in assay [1] was determined as 380 nM; in assay [2], 440 nM. Also, the Kb on Histamine H2 receptor is above 10000 nM. In assay [3], the Ratio amounted to 1.

With `Cc1cccc(NC(=O)NC2N=C(c3ccccc3)c3ccccc3N(CC(=O)NCCSCc3csc(N=C(N)N)n3)C2=O)c1` (centres undefined), the IC50 in assay [1] was determined as 4800 nM; in assay [2] it was 35 nM. The Kb at Histamine H2 receptor is above 10000 nM. Also, the Ratio in assay [3] was determined as 1600.

As to `Cc1cccc(NC(=O)NC2N=C(c3cccc(OCC(=O)NCCCC(=O)NCCSCc4csc(N=C(N)N)n4)c3)c3ccccc3N(C)C2=O)c1` (centres undefined), the IC50 in assay [1] was determined as 2100 nM; in assay [2] it was 215 nM. The Kb on Histamine H2 receptor was 631 nM. Besides, the Ratio in assay [3] came to 150.

`Cc1cccc(NC(=O)NC2N=C(c3ccccc3)c3ccccc3N(CC(=O)NCCC(=O)NCCSCc3csc(N=C(N)N)n3)C2=O)c1` (centres undefined): the IC50 in assay [1] turned out to be 390 nM; in assay [2], 430 nM. The Kb on Histamine H2 receptor is 1260 nM. Moreover, the Ratio in assay [3] came out at 5.2.

In the case of `CN1C(=O)[C@H](NC(=O)Nc2cccc(CC(=O)NCCCC(=O)NCCCOc3cccc(CN4CCCCC4)c3)c2)N=C(c2ccccc2)c2ccccc21`, the IC50 in assay [1] was 330 nM; in assay [2], 205 nM. The Kb on Histamine H2 receptor was 398 nM. Besides, the Ratio in assay [3] was 2.9.

On to `Cc1cccc(NC(=O)NC2N=C(c3cccc(OCC(=O)NCCCC(=O)NCCCOc4cccc(CN5CCCCC5)c4)c3)c3ccccc3N(C)C2=O)c1` (centres undefined), for which the 50% inhibitory concentration (IC50) was 9400 nM in assay [1] and 290 nM in assay [2]. Besides, on Histamine H2 receptor, the Kb was 316 nM. Further, the Ratio in assay [3] worked out at 157.

Turning to `Cc1cccc(NC(=O)NC2N=C(c3ccccc3)c3ccccc3N(CC(=O)NCC(=O)NCCCOc3cccc(CN4CCCCC4)c3)C2=O)c1` (centres undefined), the figures for the half-inhibitory concentration (IC50) in assay [1] and in assay [2] were 430 nM and 3600 nM, respectively. Also, the Kb at Histamine H2 receptor was 6310 nM. Also, the Ratio in assay [3] amounted to 0.5.

As to `CN1C(=O)[C@H](NC(=O)Nc2cccc(CC(=O)NCCC(=O)NCCSCc3csc(N=C(N)N)n3)c2)N=C(c2ccccc2)c2ccccc21`, the half-inhibitory concentration (IC50) in assay [1] was determined as 120 nM; in assay [2], 200 nM. Besides, at Histamine H2 receptor, the Kb is 398 nM. The Ratio in assay [3] came out at 1.5.

Turning to `CN1C(=O)[C@H](NC(=O)Nc2cccc(CC(=O)NCCSCc3csc(N=C(N)N)n3)c2)N=C(c2ccccc2)c2ccccc21`, the half-inhibitory concentration (IC50) in assay [1] came out at 560 nM; in assay [2], 480 nM. Also, the Kb on Histamine H2 receptor was above 10000 nM. For the same compound, the Ratio in assay [3] worked out at 3.4.

Regarding `Cc1cccc(NC(=O)NC2N=C(c3cccc(OCC(=O)NCC(=O)NCCCOc4cccc(CN5CCCCC5)c4)c3)c3ccccc3N(C)C2=O)c1` (centres undefined), the IC50 is 5200 nM in assay [1] and 550 nM in assay [2]. Also, at Histamine H2 receptor, the Kb is 501 nM. Moreover, the Ratio in assay [3] was 82.5.

With `Cc1cccc(NC(=O)NC2N=C(c3cccc(OCC(=O)NCCC(=O)NCCSCc4csc(N=C(N)N)n4)c3)c3ccccc3N(C)C2=O)c1` (centres undefined), the IC50 in assay [1] worked out at 2000 nM; in assay [2] it was 400 nM. Further, the Kb at Histamine H2 receptor is 794 nM. The Ratio in assay [3] was 80.

Turning to `CN1C(=O)[C@H](NC(=O)Nc2cccc(C(=O)NCCCOc3cccc(CN4CCCCC4)c3)c2)N=C(c2ccccc2)c2ccccc21`, the IC50 in assay [1] came to 2500 nM; in assay [2], 600 nM. The Kb on Histamine H2 receptor is above 10000 nM. The Ratio in assay [3] was determined as 4.5.

With `Cc1cccc(NC(=O)NC2N=C(c3ccccc3)c3ccccc3N(CC(=O)NCCCC(=O)NCCSCc3csc(N=C(N)N)n3)C2=O)c1` (centres undefined), the IC50 in assay [1] came out at 720 nM; in assay [2], 6600 nM. Besides, the Kb at Histamine H2 receptor is 3160 nM. Besides, the Ratio in assay [3] was 3.8.

Take `Cc1cccc(NC(=O)NC2N=C(c3ccccc3)c3ccccc3N(CC(=O)NCC(=O)NCCSCc3csc(N=C(N)N)n3)C2=O)c1` (centres undefined): the half-maximal inhibitory concentration (IC50) in assay [1] is 760 nM; in assay [2] it was 6800 nM. The Kb on Histamine H2 receptor is 3980 nM. For the same compound, the Ratio in assay [3] stood at 2.1.

Take `Cc1cccc(NC(=O)NC2N=C(c3ccccc3)c3ccccc3N(CC(=O)NCCCCCC(=O)NCCCOc3cccc(CN4CCCCC4)c3)C2=O)c1` (centres undefined): the concentration for half-maximal inhibition (IC50) in assay [1] is 650 nM; in assay [2] it was 800 nM. Besides, the Kb at Histamine H2 receptor is 398 nM. Moreover, the Ratio in assay [3] stood at 40.6.

With `Cc1cccc(NC(=O)NC2N=C(c3cccc(OCC(=O)NCC(=O)NCCSCc4csc(N=C(N)N)n4)c3)c3ccccc3N(C)C2=O)c1` (centres undefined), the IC50 in assay [1] was 1090 nM; in assay [2], 310 nM. Also, the Kb at Histamine H2 receptor was 1000 nM. In addition, the Ratio in assay [3] came out at 90.8.

Take `Cc1cccc(NC(=O)NC2N=C(c3cccc(OCC(=O)NCCCOc4cccc(CN5CCCCC5)c4)c3)c3ccccc3N(C)C2=O)c1` (centres undefined): the IC50 stood at 9200 nM in assay [1] and 1700 nM in assay [2]. In addition, the Kb on Histamine H2 receptor is 5010 nM. The Ratio in assay [3] is 16.1.

Take `Cc1cccc(NC(=O)NC2N=C(c3ccccc3)c3ccccc3N(CC(=O)NCCCC(=O)NCCCOc3cccc(CN4CCCCC4)c3)C2=O)c1` (centres undefined): the IC50 in assay [1] came to 900 nM; in assay [2] it was 5000 nM. Moreover, the Kb on Histamine H2 receptor was 794 nM. Also, the Ratio in assay [3] turned out to be 4.3.

In the case of `Cc1cccc(NC(=O)NC2N=C(c3ccccc3)c3ccccc3N(CC(=O)NCCC(=O)NCCCOc3cccc(CN4CCCCC4)c3)C2=O)c1` (centres undefined), the IC50 in assay [1] was found to be 1300 nM; in assay [2] it was 2150 nM. Moreover, on Histamine H2 receptor, the Kb is 794 nM. In assay [3], the Ratio is 7.

With `CN1C(=O)[C@H](NC(=O)Nc2cccc(CC(=O)NCCCCCC(=O)NCCSCc3csc(N=C(N)N)n3)c2)N=C(c2ccccc2)c2ccccc21`, the IC50 turned out to be 190 nM in assay [1] and 255 nM in assay [2]. Also, the Kb on Histamine H2 receptor is 1000 nM. Also, the Ratio in assay [3] was 4.2.

With `Cc1cccc(NC(=O)NC2N=C(c3cccc(OCC(=O)NCCCCCC(=O)NCCCOc4cccc(CN5CCCCC5)c4)c3)c3ccccc3N(C)C2=O)c1` (centres undefined), the IC50 in assay [1] came out at 3600 nM; in assay [2], 320 nM. Also, the Kb at Histamine H2 receptor is 631 nM. In assay [3], the Ratio was 112.

On to `Cc1cccc(NC(=O)NC2N=C(c3cccc(OCC(=O)NCCC(=O)NCCCOc4cccc(CN5CCCCC5)c4)c3)c3ccccc3N(C)C2=O)c1` (centres undefined), for which the IC50 came out at 15000 nM in assay [1] and 760 nM in assay [2]. Besides, on Histamine H2 receptor, the Kb was 501 nM. Besides, the Ratio in assay [3] came out at 75.

`Cc1cccc(NC(=O)N[C@@H]2N=C(c3ccccc3)c3ccccc3N(C)C2=O)c1` [L-365260] returned a 50% inhibitory concentration (IC50) in assay [1] of 11100 nM.

For `CN1C(=O)[C@H](NC(=O)Nc2cccc(CC(=O)NCCCCCC(=O)NCCCOc3cccc(CN4CCCCC4)c3)c2)N=C(c2ccccc2)c2ccccc21`, the IC50 in assay [1] turned out to be 340 nM; in assay [2], 92 nM. Further, at Histamine H2 receptor, the Kb was 631 nM. Besides, the Ratio in assay [3] amounted to 3.1.

On to `CN1C(=O)[C@H](NC(=O)Nc2cccc(CC(=O)NCCCOc3cccc(CN4CCCCC4)c3)c2)N=C(c2ccccc2)c2ccccc21`, for which the half-maximal inhibitory concentration (IC50) in assay [1] was 4100 nM; in assay [2], 160 nM. For the same compound, the Kb at Histamine H2 receptor is above 10000 nM. In assay [3], the Ratio was determined as 17.8.

Take `Cc1cccc(NC(=O)NC2N=C(c3cccc(OCC(=O)NCCSCc4csc(N=C(N)N)n4)c3)c3ccccc3N(C)C2=O)c1` (centres undefined): the IC50 turned out to be 5400 nM in assay [1] and 350 nM in assay [2]. In addition, the Kb on Histamine H2 receptor is 5010 nM. Also, in assay [3], the Ratio was 40.

In the case of `CN1C(=O)[C@H](NC(=O)Nc2cccc(CC(=O)NCCCC(=O)NCCSCc3csc(N=C(N)N)n3)c2)N=C(c2ccccc2)c2ccccc21`, the half-maximal inhibitory concentration (IC50) in assay [1] and in assay [2] was 330 nM throughout. Besides, on Histamine H2 receptor, the Kb was 501 nM. Also, in assay [3], the Ratio came out at 1.4.
